The values that follow come from patent US8354522B2, “Immunostimulatory oligoribonucleotides” (Coley Pharmaceutical GmbH, priority 2005, dated 2013).

Read-outs that look alike come from different tables or passages of the source.

In the data set the test system is Human PBMC. Briefly: Cytokine production upon human PBMC stimulation (ORN complexed to DOTAP, 16 h, ELISA). It is filed as cell-based. On the set-up: key to IFN-alpha / TNF-alpha: +: cytokine production; −: no cytokine production. The note with it: for EC50 / IFN-alpha max activity / TNF-alpha max activity: ORN complexed to DOTAP, 16 h; for EC50: full titration 2 μM to 0.9 nM; for IFN-alpha max activity / TNF-alpha max activity: mean max activity at 0.6 μM, 3-6 blood donors; for IFN-alpha / TNF-alpha: human PBMC stimulated for 16 h, supernatant ELISA. As to the method:
Human peripheral blood mononuclear cells (PBMCs) were isolated from healthy donors, plated, and stimulated in vitro with various test and control immunostimulatory agents for 16 hours. After 16 hours, the supernatants were collected and then analyzed by ELISA assay. N-U-R1-R2,-Containing Oligoribonucleotides were tested complexed to DOTAP and with full titration curves (7 concentrations), starting from 2 μM ORN complexed to 25 μg/ml DOTAP and with 1/3 dilution steps. Also included were certain negative controls, including medium alone and DOTAP (25 μg/ml culture well; “Liposomes”) alone. The control immunostimulatory agents included the imidazoquinoline R-848 (2 μM with 1/3 dilution steps and 7 concentrations) the reported ligand for TLR7, ORN having TLR8 motifs such as AU and AUU sequences (SEQ ID NO:13-SEQ ID NO:15) ORN having TLR7/8 motifs such as CU, GU and GUU sequences (SEQ ID NO:19-SEQ ID NO:23).
Human PBMC were stimulated with ORN complexed to DOTAP. After 16 hours supernatants were harvested and TNF-alpha and IFN-alpha levels were measured. Mean/Max activities at 0.6 μM of 3-6 blood donors and two individual experiments were determined. […] TLR8 and TLR7/8 ORN are divided by a red line.
Human PBMC were stimulated with ORN complexed to DOTAP. After 16 hours supernatants were harvested and IFN-alpha levels were measured. Mean/Max activities at 0.6 μM and EC50 of full titration curves (range: 2 μM to 0.9 nM) of 3-6 blood donors and two individual experiments were determined. […] Low EC50/high Max activity represents TLR7/8 ORN (FIG. 5a) whereas high EC50 and low Max activity represents TLR8 ORN (FIG. 5b).
The ORN sequences listed in Table 1 were tested for IFN-alpha and TNF-alpha production upon human PBMC stimulation. Human PBMC were stimulated for 16 h with the indicated ORN, and supernatants were harvested and cytokine production measured by ELISA. Table 2 summarizes the min/max activity and EC50 of ORN for IFN-alpha and TNF-alpha production.
Background: In an ELISA, binding on a coated surface is turned into a signal by an enzyme label.

[1] abbreviates: human PBMC, read-out: IFN-alpha EC50.
Setting [2] is: human PBMC, read-out: TNF-alpha EC50.

As usually defined, the EC50 is the midpoint of the concentration-response curve. As for “C*C*G*A*G*C*C*G*A*U*C*U*C*A*C*C (CCGAGCCGAUCUCACC; listed as RNA, chemistry not fully specified) [SEQ ID NO: 69]”, the EC50 by setting is: under setting [1], 619 nM; under setting [2], 313 nM. The same substance registered an IFN-alpha max activity (human PBMC) of 1031 pg/mL. The substance further registered a TNF-alpha max activity (human PBMC) of 26915 pg/mL.
The like results for “C*C*G*A*G*C*C*G*A*T*U*U*C*A*C*C [SEQ ID NO: 79] (CCGAGCCGANUUCACC; Oligoribonucleotide, chemistry of T and the '*' linkage is not given here, further chemistry not given here)” were, in that order, 35 nM, 334 nM, 1152 pg/mL and 17728 pg/mL.
Consider “C*C*G*A*G*C*C*G*A*G*U*U*C*A*C*C [SEQ ID NO: 67] (CCGAGCCGAGUUCACC; listed as RNA, chemistry not fully specified)”, for which the EC50 under setting [1] was found to be 81 nM. Further, the EC50 under setting [2] turned out to be 79 nM. Moreover, under “human PBMC”, the IFN-alpha max activity was found to be 2094 pg/mL and the TNF-alpha max activity was found to be 40729 pg/mL.
Consider “G*U*A*G*U*A*G*U*A*G*U*A*G*U*A*G*U*A*G*U (GUAGUAGUAGUAGUAGUAGU; listed as RNA, chemistry not fully specified) [SEQ ID NO: 25]”, for which the IFN-alpha result is recorded as “+” and the TNF-alpha result was “+”.
As for “C*C*G*A*G*C*C*G*A*A*G*A*U*A*C*C (CCGAGCCGAAGAUACC; listed as RNA, chemistry not fully specified) [SEQ ID NO: 85]”, the EC50 under setting [1] is over 2000 nM. Moreover, under setting [2], the EC50 worked out at 215 nM. Also, under “human PBMC”, the IFN-alpha max activity was determined as 193.7 pg/mL and the TNF-alpha max activity was found to be 17146 pg/mL.
The like results for “C*C*G*A*G*C*C*G*C*U*U*A*A*C*C*C (CCGAGCCGCUUAACCC; listed as RNA, chemistry not fully specified) [SEQ ID NO: 49]” were, in that order, 375 nM, 350 nM, 3367 pg/mL and 18039 pg/mL.
Take “C*C*G*A*G*C*C*G*A*A*U*A*A*C*C*C (CCGAGCCGAAUAACCC; listed as RNA, chemistry not fully specified) [SEQ ID NO: 40]”: the EC50 under setting [1] was at least 1500 nM. For the same substance, the EC50 under setting [2] stood at 352 nM. Where the note is “human PBMC”, this substance registered an IFN-alpha max activity of 235.3 pg/mL and a TNF-alpha max activity of 18083 pg/mL.
Turning to “C*C*G*A*G*C*C*G*A*T*U*U*C*A*C*C [SEQ ID NO: 78] (CCGAGCCGANUUCACC; Oligoribonucleotide, chemistry of T and the '*' linkage is not given here, further chemistry not given here)”, the EC50 under setting [1] is 6 nM and the EC50 under setting [2] is 241 nM. Also, the IFN-alpha max activity (human PBMC) was determined as 1609 pg/mL. This substance returned a TNF-alpha max activity (human PBMC) of 20126 pg/mL.
In the case of “C*C*G*A*G*C*C*G*A*A*U*U*U*A*C*C (CCGAGCCGAAUUUACC; listed as RNA, chemistry not fully specified) [SEQ ID NO: 60]”, the EC50 came to 109 nM under setting [1] and 187 nM under setting [2]. Further, the IFN-alpha max activity (human PBMC) turned out to be 1463 pg/mL. The same substance yielded a TNF-alpha max activity (human PBMC) of 36562 pg/mL.
“U*U*A*G*G*C*A*C (UUAGGCAC; phosphorothioate linkages, chemistry not fully specified) [SEQ ID NO: 2]”: the IFN-alpha result is reported as “−” and the TNF-alpha entry was “+”.
For “C*C*G*A*G*C*C*G*A*G*U*U*U*A*C*C (CCGAGCCGAGUUUACC; listed as RNA, chemistry not fully specified) [SEQ ID NO: 58]”, the EC50 under setting [1] is 63 nM. The EC50 under setting [2] turned out to be 203 nM. Further, under “human PBMC”, the IFN-alpha max activity was determined as 1760 pg/mL and the TNF-alpha max activity is 36627 pg/mL.
For the substance “C*C*G*A*G*C*C*G*A*A*U*G*U*A*C*C (CCGAGCCGAAUGUACC; listed as RNA, chemistry not fully specified) [SEQ ID NO: 63]”, the EC50 under setting [1] worked out at 1840 nM. Further, the EC50 under setting [2] is 309 nM. In addition, for the setting “human PBMC”, the IFN-alpha max activity is 177.3 pg/mL and the TNF-alpha max activity worked out at 34219 pg/mL.
On to “I*U*A*I*U*A*I*U*A*I*U*A*I*U*A*I*U*A*I*U (NUANUANUANUANUANUANU; inosine, phosphorothioate linkages, chemistry not fully specified) [SEQ ID NO: 27]”, for which the IFN-alpha entry is listed as “+” and the TNF-alpha entry is recorded as “+”.
“C*C*G*A*G*C*C*G*A*U*U*C*T*A*C*C (CCGAGCCGAUUCNACC; Oligoribonucleotide, chemistry of T and the '*' linkage is not given here, further chemistry not given here) [SEQ ID NO: 75]”: the EC50 under setting [1] was determined as 1300 nM. Under setting [2], the EC50 came to 129 nM. Under “human PBMC”, this substance came in with an IFN-alpha max activity of 929.9 pg/mL and a TNF-alpha max activity of 27576 pg/mL.
For “A*A*U*A*A*U*A*A*U*A*A*U*A*A*U*A*A*U*A*A (AAUAAUAAUAAUAAUAAUAA; listed as RNA, chemistry not fully specified) [SEQ ID NO: 16]”, the IFN-alpha entry is recorded as “−” and the TNF-alpha entry is “+”.
For “C*C*G*A*G*C*C*G*A*U*U*U*C*A*C*C (CCGAGCCGAUUUCACC; listed as RNA, chemistry not fully specified) [SEQ ID NO: 71]”, the EC50 under setting [1] was 51 nM. Moreover, under setting [2], the EC50 was determined as 160 nM. Where the note is “human PBMC”, this substance came in with an IFN-alpha max activity of 1626 pg/mL and a TNF-alpha max activity of 45164 pg/mL.
For the substance “U*A*U*A*U*A*U (UAUAUAU; phosphorothioate linkages, chemistry not fully specified) [SEQ ID NO: 33]”, the IFN-alpha entry is “−” and the TNF-alpha entry is on record as “+”.
On to “G*U*C*G*U*C*G*U*C*G*U*C*G*U*C*G*U*C*G*U (GUCGUCGUCGUCGUCGUCGU; listed as RNA, chemistry not fully specified) [SEQ ID NO: 26]”, for which the IFN-alpha result is on record as “+” and the TNF-alpha result was “+”.
Consider “G*C*C*A*C*C*G*A*G*C*C*G*A*A*U*A*U*A*C*C (GCCACCGAGCCGAAUAUACC; listed as RNA, chemistry not fully specified) [SEQ ID NO: 11]”, for which the IFN-alpha result is recorded as “−” and the TNF-alpha result is listed as “+”.
As to “C*C*G*A*G*C*C*A*U*A*U*A*U*A*U*C (CCGAGCCAUAUAUAUC; listed as RNA, chemistry not fully specified) [SEQ ID NO: 39]”, the EC50 under setting [1] was at least 1500 nM. Under setting [2], the EC50 turned out to be 324 nM. For the setting “human PBMC”, this substance yielded an IFN-alpha max activity of 356.7 pg/mL and a TNF-alpha max activity of 19253 pg/mL.
Turning to “dN*dN*dN*dN*dN*N*A*U*A*U*N*N*dN*dN*dN*dN*dN*dN [SEQ ID NO: 7]”, the IFN-alpha entry is reported as “−” and the TNF-alpha result is given as “+”.
On to “C*C*G*A*G*C*C*G*A*C*U*U*U*A*C*C (CCGAGCCGACUUUACC; listed as RNA, chemistry not fully specified) [SEQ ID NO: 57]”, for which the EC50 amounted to 77 nM under setting [1] and 213 nM under setting [2]. Where the note is “human PBMC”, this substance gave an IFN-alpha max activity of 1499 pg/mL. This substance came in with a TNF-alpha max activity (human PBMC) of 33624 pg/mL.
For the substance “U*U*U*A*U*U*U*A*U*U*U*A*U*U*U*A*U*U*U*A (UUUAUUUAUUUAUUUAUUUA; chemistry not fully specified) [SEQ ID NO: 14]”, the IFN-alpha result is listed as “+” and the TNF-alpha result is listed as “+”. Where the note is “human PBMC”, the “IFN-alpha production upon PBMC stimulation (in words)” value is on record as “induced IFN-alpha production”.
As to “C*C*G*A*G*C*C*G*C*A*A*U*U*C*C*C [SEQ ID NO: 52] (CCGAGCCGCAAUUCCC; listed as RNA, chemistry not fully specified)”, the EC50 turned out to be 508 nM under setting [1] and 895 nM under setting [2]. The IFN-alpha max activity (human PBMC) worked out at 2263 pg/mL. Also, the TNF-alpha max activity (human PBMC) amounted to 11920 pg/mL.
Consider “U*C*U*C*U*C*U (UCUCUCU; phosphorothioate linkages, chemistry not fully specified) [SEQ ID NO: 32]”, for which the IFN-alpha result was “+” and the TNF-alpha entry was “+”.
With “C*C*G*A*G*C*C*G*C*U*A*U*C*C*C*C (CCGAGCCGCUAUCCCC; listed as RNA, chemistry not fully specified) [SEQ ID NO: 55]”, the EC50 under setting [1] was over 2000 nM. The EC50 under setting [2] was determined as 337 nM. For the setting “human PBMC”, the IFN-alpha max activity was determined as 224.4 pg/mL and the TNF-alpha max activity is 15154 pg/mL.
